Test results as given in paper PMC11817060, “Optimizing Therapeutics for Intratumoral Cancer Treatments: Antiproliferative Vanadium Complexes in Glioblastoma” (International Journal of Molecular Sciences, 2025).
Like-named read-outs stand apart in the source and are kept apart here.

Experiments:
[1] = tested on: T98G (glioblastoma multiforme) cells; assay: MTT cell viability assay (72 h), fresh or aged solutions, T98G; assay type: cell-based, human; conditions: 72 h incubation
Method: (§1) For viability experiments, the cells were seeded in 96-well plates at an initial density of 1.0 × 10^3 (T98G) or 3.0 × 10^3 (SVG p12) viable cells per well in 100 μL medium and left to attach overnight.
(§2) For all cell assays, freshly prepared stock solutions of the V(V) complexes (10 mM in DMSO) were used. […] The same concentration of DMSO was used in the control experiments. Stock solutions of Na3VO4 (10 mM in MilliQ H2O) and cisplatin (1.0 mM in phosphate-buffered saline) were prepared on the day of the experiments. […] The treatment complexes were applied in a series of nine two-fold dilutions, starting from 100 μM V, plus the vehicle control. Each treatment was composed of six replicate wells with cells and two background wells without cells but containing the same compounds. […] (1.0 mg/mL in complete medium), and incubation was continued for 4–6 h. The medium was then removed, the blue formazan crystals were dissolved in 0.10 mL per well of DMSO, and the absorbance at 600 nm was measured with a Victor V3 plate reader.

[2] = tested on: SVG p12 (immortalized non-cancer brain astroglia) cells; assay: MTT cell viability assay (72 h), fresh or aged solutions, SVG p12; assay type: cell-based, human; conditions: for IC50: 72 h incubation
Method: as §1, §2

[3] = Homo sapiens, T98G, pre-incubated with medium for 24 h at 310 K before addition to cells (B), read-out: IC50 (T98G), aged solutions (B)

SMILES: OCCNCC/N=C/c1ccccc1O [Compound H2SHED, N-(salicylideneaminato)-N′-(2-hydroxyethyl)-1,2-ethanediamine]
- IC50 [1, 3]: > 100 µM

SMILES: CC(C)c1cc(O)c(O)c(C(C)C)c1 [DIPCATH2, 3,5-di-iso-propyl-catechol]
- IC50 [1, 3]: 54 ± 8 µM

SMILES: CC(C)(C)c1cc(O)c(O)c(C(C)(C)C)c1 [DTBH2, 3,5-di-tert-butylcatechol]
- IC50 [1, 3]: 26 ± 3 µM

SMILES: [Na+].[Na+].[Na+].[O]=[V]([O-])([O-])[O-] [Na3VO4]
- IC50 ([1]; pre-incubated with medium for 24 h at 310 K before addition to cells (B), read-out: IC50 (T98G), aged solutions (B)): 40 ± 3 µM
- IC50 ([2]; pre-incubated with medium for 24 h at 310 K before addition to cells (B), read-out: IC50 (SVG p12), aged solutions (B)): 48 ± 4 µM
- Effect of subtoxic V(V) concentrations on cell viability ([2]; SVG p12, 72 h assay, aged in the medium for 24 h, not observed in T98G): increase in cell viability

SMILES: CC(C)c1cc(C(C)C)c(C(C)C)c(O)c1O [TIPCATH2, 3,4,6-tri-iso-propyl catechol]
- IC50 [1, 3]: 54 ± 7 µM

SMILES: N.N.[Cl][Pt][Cl] [cisplatin]
- IC50 ([1]; fresh solutions added to cells within 1 min (A), read-out: IC50 (T98G), fresh solutions (A)): 31 ± 1 µM
- IC50 ([2]; fresh solutions added to cells within 1 min (A), read-out: IC50 (SVG p12), fresh solutions (A)): 6.1 ± 0.4 µM
